Assay results as given in patent US12414931B1 (priority 2024, dated 2025).

How the values were obtained:
[1] = test system: MCF12A cells; assay type: cell-based, human; details: read-out: IC50 cell viability, normal breast cells
[2] = target: purified KGA (Homo sapiens, UniProt O94925); details: read-out: apparent binding affinity (Kd)
[3] = test system: HCC1569 cells
[4] = target: T1, KGA (Homo sapiens, UniProt O94925); assay type: biochemical
T1 construct: His6 (C); made in house; host or cells: E. coli Rosetta (DE3), pET28a(+)
T1 sequence (O94925 72-598): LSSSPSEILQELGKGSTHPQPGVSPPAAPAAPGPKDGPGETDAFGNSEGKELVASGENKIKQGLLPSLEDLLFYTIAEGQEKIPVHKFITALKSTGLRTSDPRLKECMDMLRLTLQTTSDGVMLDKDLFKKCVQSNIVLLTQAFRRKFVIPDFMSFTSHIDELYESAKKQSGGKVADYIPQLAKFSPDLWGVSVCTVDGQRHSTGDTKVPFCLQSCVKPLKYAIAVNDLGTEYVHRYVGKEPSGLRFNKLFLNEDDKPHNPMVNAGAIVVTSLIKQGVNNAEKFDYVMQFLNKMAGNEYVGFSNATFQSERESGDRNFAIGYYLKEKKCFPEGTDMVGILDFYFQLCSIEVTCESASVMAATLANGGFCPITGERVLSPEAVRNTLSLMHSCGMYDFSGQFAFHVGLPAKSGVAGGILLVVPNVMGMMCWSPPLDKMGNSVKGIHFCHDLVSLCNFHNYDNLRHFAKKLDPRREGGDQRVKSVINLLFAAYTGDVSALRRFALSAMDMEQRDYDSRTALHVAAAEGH

[5] = test system: MDA-MB-231 cells
[6] = test system: MDA-MB-231 cells; remark: listed apart in the source
[7] = target: T2, purified recombinant KGA (Homo sapiens, UniProt O94925); test: KGA activity inhibition assay, spectrophotometric (NADH production at 340 nm); assay type: biochemical; details: 37° C., 30 min, 5 mM glutamine
T2 construct: His6 (C); made in house; host or cells: E. coli Rosetta (DE3), pET28a(+)
T2 sequence (O94925 72-598): T1 sequence (O94925 72-598)

NC(CC[As](O)O)C(=O)O (stereo not shown) [R-AST-OH, trivalent hydroxyarsinothricin]
IC50 [1]: 75 µM | Kd [2]: 40 µM | cells that lost viability ([3]; 10 µM): ~47% | IC50 ([3]; read-out: IC50 cell viability): 3 µM | IC50 ([4]; luminescent assay, 15 min preincubation with KGA, read-out: IC50 against KGA): 2 µM | fold more effective inhibitor of KGA than Rox(III) ([4]; ratio of IC50 values): 4.5 fold | fold more effective inhibitor of KGA than pentavalent AST-OH ([4]; ratio of IC50 values): 125 fold | cell permeability (uptake of arsenicals) [5]: lowest permeability | cells that lost viability ([6]; 10 µM): approximately 64% | IC50 ([6]; read-out: IC50 cell viability): 5 µM

N[C@H](CC[As](=O)(O)O)C(=O)O [AST-OH, hydroxyarsinothricin]
half-maximal inhibitory concentration (IC50) against KGA [7]: submillimolar range

NC(CCP(=O)(O)O)C(=O)O (stereo not shown) [AP4, 2-amino-4-phosphonobutyric acid]
half-maximal inhibitory concentration (IC50) against KGA [7]: submillimolar range

[N-]=[N+]=CC(=O)CC[C@H](N)C(=O)O [DON, 6-diazo-5-oxo-L-norleucine]
half-maximal inhibitory concentration (IC50) against KGA [7]: submillimolar range
